Experimental data published in patent US10829501B2 (BRISTOL-MYERS SQUIBB COMPANY, priority 2016, dated 2020).
Where two headings read alike, the source gives them in different places.

Key:
[1] = test system: spontaneously hypertensive rat, renal hypertensive rat and deoxycortisone acetate salt hypertensive rat models; details: cited from earlier work
[2] = test system: congestive heart failure in Dahl salt-sensitive rats; details: cited from earlier work
neointimal formation = details: rats, balloon injury model; cited from earlier work
rat stroke model = details: cited from earlier work
[3] = test system: IL-1 beta-induced coronary stenosis; details: long term treatment, porcine model; cited from earlier work
ROCK2 = ROCK2 (Homo sapiens, UniProt O75116); test: ROCK2 kinase inhibition assay (LABCHIP 3000 Reader, FITC peptide substrate); details: read-out: ROCK2 Activity (ROCK2 IC50); 5 μM ATP, 1.5 μM peptide substrate, pH 7.5;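 also: rho kinase reaction read by separating phosphorylated from unphosphorylated peptide on chip, with inhibition of kinase activity computed per concentration across a dose-response series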
Chain of ROCK2 (O75116 whole entry, species assumed): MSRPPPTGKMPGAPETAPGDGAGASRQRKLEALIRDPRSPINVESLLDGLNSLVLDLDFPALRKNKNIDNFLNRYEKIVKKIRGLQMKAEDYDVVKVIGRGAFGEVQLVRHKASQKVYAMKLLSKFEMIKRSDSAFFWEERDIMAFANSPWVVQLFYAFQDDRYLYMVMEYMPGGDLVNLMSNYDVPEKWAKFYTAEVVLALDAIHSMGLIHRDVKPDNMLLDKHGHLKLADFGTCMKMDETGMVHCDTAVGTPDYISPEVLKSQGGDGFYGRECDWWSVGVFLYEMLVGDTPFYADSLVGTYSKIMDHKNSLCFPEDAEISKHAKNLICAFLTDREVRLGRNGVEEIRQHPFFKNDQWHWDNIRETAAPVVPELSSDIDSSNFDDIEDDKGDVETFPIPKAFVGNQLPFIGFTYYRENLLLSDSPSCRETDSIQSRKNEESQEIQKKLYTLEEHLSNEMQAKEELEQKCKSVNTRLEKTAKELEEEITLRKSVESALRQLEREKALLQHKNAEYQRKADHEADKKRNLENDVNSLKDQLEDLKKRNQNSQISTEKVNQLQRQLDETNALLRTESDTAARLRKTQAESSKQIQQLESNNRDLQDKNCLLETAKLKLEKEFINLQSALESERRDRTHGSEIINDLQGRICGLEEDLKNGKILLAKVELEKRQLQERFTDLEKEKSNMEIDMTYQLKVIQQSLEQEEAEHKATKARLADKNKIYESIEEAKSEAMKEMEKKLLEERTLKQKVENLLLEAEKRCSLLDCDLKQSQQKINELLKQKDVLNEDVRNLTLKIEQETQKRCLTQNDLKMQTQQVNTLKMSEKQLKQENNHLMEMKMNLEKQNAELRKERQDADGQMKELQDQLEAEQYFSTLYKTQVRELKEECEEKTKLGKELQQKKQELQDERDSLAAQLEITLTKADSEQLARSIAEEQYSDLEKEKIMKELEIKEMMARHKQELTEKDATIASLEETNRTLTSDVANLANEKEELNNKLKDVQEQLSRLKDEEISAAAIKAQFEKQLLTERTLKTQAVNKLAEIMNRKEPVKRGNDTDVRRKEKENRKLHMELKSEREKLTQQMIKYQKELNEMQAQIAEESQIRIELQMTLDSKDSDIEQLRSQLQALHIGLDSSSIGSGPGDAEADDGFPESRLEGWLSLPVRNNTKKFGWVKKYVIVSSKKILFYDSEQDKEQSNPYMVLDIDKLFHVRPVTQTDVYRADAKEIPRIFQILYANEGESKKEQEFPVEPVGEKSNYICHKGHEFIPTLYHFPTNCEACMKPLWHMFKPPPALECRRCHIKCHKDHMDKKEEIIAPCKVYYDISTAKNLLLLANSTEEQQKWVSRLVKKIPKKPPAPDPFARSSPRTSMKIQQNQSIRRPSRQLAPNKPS

Compound: C[C@@H](N)[C@H]1CC[C@H](C(=O)Nc2ccncc2)CC1 [Example Y-27632]
- blood pressure ([1]; control rats): only a minor effect on blood pressure
- blood pressure ([1]; three rat models of hypertension): significantly decrease blood pressure
- ventricular hypertrophy, fibrosis and function [2]: improve ventricular hypertrophy, fibrosis and function
- neointimal formation (neointimal formation): inhibited neointimal formation

Compound: O=S(=O)(c1cccc2cnccc12)N1CCCNCC1 [fasudil]
- infarct size and neurologic deficit (rat stroke model): reduce both the infarct size and neurologic deficit
- coronary constrictive remodeling [3]: promote a regression of coronary constrictive remodeling
- coronary stenosis [3]: progressively reduce coronary stenosis

Compound: N-((aR)-6-((3- carbamoylpyridin-2- yl)oxy)spiro [3.3]heptan-2-yl)- 6- methoxypyrazolo[1,5- a]pyridine-3- carboxamide, trifluoroacetate [Example 100]
- IC50 (ROCK2): 5 to 50 nM

Compound: N-((aR)-6-((3- carbamoylpyridin-2- yl)oxy)spiro[3.3] heptan-2-yl)- 6-(3-hydroxy-3- methylbutoxy) pyrazolo[1,5- a]pyridine-3- carboxamide, trifluoroacetate [Example 123]
- IC50 (ROCK2): 5 to 50 nM

Compound: N-((aR)- 6-((3- carbamoyl- pyridin-2- yl)oxy)spiro[3.3] heptan-2-yl)- 1-(2- hydroxy-2- methylpropyl)-1H- pyraolo[3,4-b] pyridine-3- carboxamide, trifluoroacetate [Example 94]
- IC50 (ROCK2): 5 to 50 nM

Compound: N-((aR)- 6-((3- carbamoylpyridin- 2- yl)oxy)spiro[3.3] heptan-2-yl)- 2-(3,3-difluoroazetidin- 1-yl)- 4-methylthiazole- 5- carboxamide, trifluoroacetate [Example 90]
- IC50 (ROCK2): 50 to 250 nM
